Reference: paper PMC10342533, “Novel Tetrazole Derivatives Targeting Tubulin Endowed with Antiproliferative Activity against Glioblastoma Cells” (International Journal of Molecular Sciences, 2023)
≈ marks a conversion by molar mass, not a printed value.

Columns and labels:
[1] = test system: T98G (temozolomide resistant glioblastoma); test: Cell growth inhibition, MTT assay, T98G; assay type: cell-based; conditions: Homo sapiens
Procedure: (§1) The ability of the synthesized compounds to inhibit the cell proliferation of human cancer cell lines was assayed by measuring cell viability through the use of the MTT method 72 h after treatment. For this purpose, representative cell lines of the most frequent kinds of cancer were selected, including the following: HeLa (cervix epithelioid carcinoma), MCF7 (breast adenocarcinoma), U87 MG (glioblastoma), T98G (temozolomide resistant glioblastoma), HepG2 (hepatocellular carcinoma), HCT8 (colorectal carcinoma), and HT-29 (colon adenocarcinoma).
(§2) The cell lines were obtained from ATTC (Manassas, VA, USA). […] The cells were periodically tested for Mycoplasma infection by using a MycoAlert kit (Lonza, Norwest, Australia), and only Mycoplasma-free cells were used in the experiments.
(§3) Then, every compound was added (10 µL/well) to a final concentration of 10 µM. Untreated cells were used as negative controls. The antiproliferative activity of compounds was measured 72 h after drug exposure through the MTT assay. […] For this purpose, compounds were used at different concentrations, ranging from 10^−10 to 10^−2 M. Measurements were performed in triplicate, and each experiment was repeated three times. The IC50 values were determined using Origin software (version 9.6, OriginLab, Washington, DC, USA).

[2] = test system: HCT8 (colorectal carcinoma); test: Cell growth inhibition, MTT assay, HCT8; assay type: cell-based; conditions: Homo sapiens
Procedure: as §1, §2, §3

[3] = test system: HEK-293 (embryonic kidney); test: Cell growth inhibition, MTT assay, non-tumor HEK-293; assay type: cell-based; conditions: Homo sapiens, HEK293, 72 h, non-tumorigenic cell line
Procedure: The ability of the synthesized compounds to inhibit the cell proliferation of human cancer cell lines was assayed by measuring cell viability through the use of the MTT method 72 h after treatment. For this purpose, representative cell lines of the most frequent kinds of cancer were selected, including the following: HeLa (cervix epithelioid carcinoma), MCF7 (breast adenocarcinoma), U87 MG (glioblastoma), T98G (temozolomide resistant glioblastoma), HepG2 (hepatocellular carcinoma), HCT8 (colorectal carcinoma), and HT-29 (colon adenocarcinoma). […] The compounds were also tested against the non-tumor HEK-293 cells to study their selectivity toward cancer cells. […] The cell lines were obtained from ATTC (Manassas, VA, USA). […] The cells were periodically tested for Mycoplasma infection by using a MycoAlert kit (Lonza, Norwest, Australia), and only Mycoplasma-free cells were used in the experiments. […] Louis, MO, USA), which was dissolved in PBS at 5 mg/mL in accordance with the manufacturer's instructions. […] Untreated cells were used as negative controls. The antiproliferative activity of compounds was measured 72 h after drug exposure through the MTT assay. […] For this purpose, compounds were used at different concentrations, ranging from 10^-10 to 10^-2 M. Measurements were performed in triplicate, and each experiment was repeated three times. The IC50 values were determined using Origin software (version 9.6, OriginLab, Washington, DC, USA).

[4] = target: T1, microtubular protein isolated from calf brains (bovine brain tubulin) (Bos taurus, UniProt P81947+Q6B856); test: Tubulin polymerization inhibition (TPI); assay type: biochemical; conditions: in vitro tubulin polymerization, mean ± SD
T1 construct: from tissue; host or cells: calf (bovine) brain
Procedure: We evaluated the capacity of the new synthesized compounds to inhibit the polymerization of microtubular protein isolated from calf brains. The assays were performed by taking absorbance measurements to quantify the amount of polymer mass formed in the presence (or absence; negative controls) of the compounds.
Bovine brain tubulin was isolated as previously described by following a modified version of the Shelanski method. The protein was stored at −80 °C, and its concentration was determined by employing the Bradford method before each use. […] Tubulin polymerization, caused when heating the samples, was accompanied by an increase in the absorbance (at 450 nm) of the sample that was monitored by using a Helios α spectrophotometer. […] Measurements were performed in triplicate in two independent experiments using microtubular proteins from different preparations.

[5] = test system: HT-29 (colon adenocarcinoma); test: Cell growth inhibition, MTT assay, HT-29, without or with verapamil; assay type: cell-based, human
Procedure: as §1
Multidrug resistance (MDR) proteins, especially P-glycoprotein (P-gp), are often involved in resistance mechanisms affecting tubulin-binding drugs that are frequently related to the failure of cancer therapies. […] These pumps are also part of the blood–brain barrier.
as §2, §3

[6] = test system: HepG2 (hepatocellular carcinoma); test: Cell growth inhibition, MTT assay, HepG2; assay type: cell-based; conditions: Homo sapiens
Procedure: as §1, §2, §3

[7] = test system: HeLa (cervix epithelioid carcinoma); test: Cell growth inhibition, MTT assay, HeLa; assay type: cell-based; conditions: Homo sapiens
Procedure: as §1, §2, §3

[8] = test system: MCF7 (breast adenocarcinoma); test: Cell growth inhibition, MTT assay, MCF7; assay type: cell-based; conditions: Homo sapiens
Procedure: as §1, §2, §3

[9] = Aqueous solubility, shake-flask method, phosphate buffer pH 7.4; assay type: physicochemical; conditions: thermodynamic from solid, phosphate buffer pH 7.4, shake-flask, mean ± SD of three experiments
Procedure: The aqueous solubility of tetrazole derivatives was determined by the shaking flask methodology in phosphate buffer at pH 7.4, microfiltration, and quantification of the saturated solutions via UV spectroscopy. […] The introduction of polar groups on the 3-indole position was favorable since the most soluble compounds were the oximes 16–19 (38–53 µg/mL), followed by the carbaldehyde series 12–15 (33–45 µg/mL), and the carbonitrile derivatives (25–40 µg/mL), whereas the unsubstituted indoles 8–11 were the least soluble series (19–35 µg/mL).
The aqueous solubility of the compounds was determined using the saturation shake-flask method. First, calibration lines at the maximum wavelength of absorbance were determined for each compound. Then, 5 mg of each compound was suspended in 500 µL of pH 7.4 buffer, and the resulting mixture was shaken for 72 h at room temperature and filtrated over a […] filter to remove the insoluble fraction. The concentration of the compound in the supernatant (saturated solution) was determined by measuring UV absorbance at the maximum wavelength of absorbance and interpolation in the calibration line. A Helios Alfa Spectrophotometer was used for the UV measurements. The aqueous solubility values are given as the average of three independent experiments.

U87 MG (glioblastoma) = test: Cell growth inhibition, MTT assay, U87 MG; assay type: cell-based; conditions: Homo sapiens, U-87 MG
Procedure: as §1, §2, §3

[10] = HCT-8, 72 h after drug exposure
[11] = Homo sapiens, HT-29, 72 h after drug exposure
[12] = Homo sapiens, HT-29, mean ± SD, Table S1
[13] = mean ± SD, Table S1, in the presence of verapamil (10 µM)

T1 sequence (Q6B856 whole entry): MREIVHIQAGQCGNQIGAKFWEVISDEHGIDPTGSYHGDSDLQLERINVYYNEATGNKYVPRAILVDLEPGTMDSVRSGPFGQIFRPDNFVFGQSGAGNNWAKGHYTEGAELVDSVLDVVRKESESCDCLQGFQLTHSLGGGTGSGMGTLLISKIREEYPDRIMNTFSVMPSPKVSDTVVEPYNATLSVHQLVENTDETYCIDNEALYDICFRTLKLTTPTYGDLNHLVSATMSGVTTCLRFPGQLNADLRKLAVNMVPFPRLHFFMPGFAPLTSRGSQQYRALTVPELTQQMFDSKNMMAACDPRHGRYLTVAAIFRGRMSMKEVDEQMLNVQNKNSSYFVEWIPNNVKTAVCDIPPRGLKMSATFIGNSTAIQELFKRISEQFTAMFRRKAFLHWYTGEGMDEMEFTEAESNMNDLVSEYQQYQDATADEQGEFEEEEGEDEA
T1 sequence (P81947 whole entry): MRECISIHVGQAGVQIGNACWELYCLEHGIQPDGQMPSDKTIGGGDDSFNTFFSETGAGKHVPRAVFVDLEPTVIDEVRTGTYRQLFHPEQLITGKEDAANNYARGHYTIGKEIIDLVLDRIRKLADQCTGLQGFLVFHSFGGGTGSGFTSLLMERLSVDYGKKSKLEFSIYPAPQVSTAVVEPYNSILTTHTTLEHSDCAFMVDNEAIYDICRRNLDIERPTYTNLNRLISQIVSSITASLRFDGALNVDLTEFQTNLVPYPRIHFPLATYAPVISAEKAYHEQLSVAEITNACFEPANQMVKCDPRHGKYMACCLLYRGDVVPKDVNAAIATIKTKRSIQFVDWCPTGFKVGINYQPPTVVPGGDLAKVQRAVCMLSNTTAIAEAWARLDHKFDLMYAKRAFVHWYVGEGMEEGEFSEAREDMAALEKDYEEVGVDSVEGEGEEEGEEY

Structure (SMILES)	IC50 ([1]; 72 h, 72 h after drug exposure)	IC50 ([1]; mean ± SD, Table S1)	IC50 [2, 10]	IC50 [3]	IC50 [4]	melting point	IC50 [5, 11]	IC50 [5, 12]	IC50 [5, 13]	IC50 ([6]; 72 h after drug exposure)	IC50 ([6]; mean ± SD, Table S1)	IC50 ([7]; 72 h after drug exposure)	IC50 ([7]; mean ± SD, Table S1)	IC50 ([8]; 72 h after drug exposure)	IC50 ([8]; mean ± SD, Table S1)	solubility at 72 h [9]	IC50 (U87 MG (glioblastoma); 72 h after drug exposure)	IC50 (U87 MG (glioblastoma); mean ± SD, Table S1)	IC50 ([2]; HCT-8, mean ± SD, Table S1)
CSc1cc(-c2nnnn2-c2ccc3c(ccn3C)c2)cc(SC)n1 [Compound 11, 5-(5-(2,6-bis(methylsulfanyl)pyridin-4-yl)-1H-tetrazol-1-yl)-1-methyl-1H-indole]	219 nM	219 ± 2.2 nM	236 nM	6820 nM	3800 ± 100 nM	160 to 161 °C	255 nM	255 ± 2.6 nM	257 ± 3 nM	227 nM	227 ± 2.5 nM	233 nM	233.1 ± 1.4 nM	240 nM	240.2 ± 2 nM	30.7 ± 0.3 µg/mL (≈ 83.3 µM)	209 nM	209.3 ± 1.9 nM	–
COc1cc(-c2nnnn2-c2ccc3c(c2)c(C=O)cn3C)cc(Cl)n1 [Compound 13, 5-(5-(2-chloro-6-methoxypyridin-4-yl)-1H-tetrazol-1-yl)-1-methyl-1H-indole-3-carbaldehyde]	54 nM	54.1 ± 0.3 nM	50 nM	3720 nM	2800 ± 200 nM	214 to 215 °C	64 nM	64.2 ± 0.4 nM	67.3 ± 0.6 nM	55 nM	55.3 ± 0.2 nM	57 nM	57.5 ± 0.3 nM	65 nM	65.4 ± 0.5 nM	45.3 ± 0.4 µg/mL (≈ 123 µM)	55 nM	55.4 ± 0.4 nM	50.1 ± 0.4 nM
CSc1cc(-c2nnnn2-c2ccc3c(c2)c(C=O)cn3C)cc(SC)n1 [Compound 15, 5-(5-(2,6-bis(methylsulfanyl)pyridin-4-yl)-1H-tetrazol-1-yl)-1-methyl-1H-indole-3-carbaldehyde]	122 nM	122.5 ± 1.2 nM	141 nM	6480 nM	3500 ± 200 nM	207 to 208 °C	244 nM	244.1 ± 1.8 nM	242 ± 2.5 nM	137 nM	137 ± 1.5 nM	144 nM	144 ± 1.7 nM	130 nM	130.1 ± 1.1 nM	41.2 ± 0.4 µg/mL (≈ 104 µM)	115 nM	115 ± 1.4 nM	141.3 ± 1 nM
